Assay results reported in patent US20180193361A1, “GUT ANTI-INFLAMMATORY AGENTS FOR REGULATION OF HIGH BLOOD GLUCOSE LEVELS” (UNIVERSITY HEALTH NETWORK, priority 2015, published 2018).

How the values were obtained:
Rag1null mice = assay: Metabolic studies, Rag1null mice on HFD 5-ASA; format: in vivo; conditions: HFD vs HFD 5-ASA 1500 mg/kg/day, 8 weeks
Procedure: Mice. Mice were fed either NCD (15 kcal % fat) or HFD (Research Diets, 60 kcal % fat, irradiated) starting at 6 weeks of age. All studies were performed under the approval of Animal User Protocols by the Animal Care Committee at the University Health Network. Mice were maintained in a pathogen-free, temperature-controlled environment on a 12-hour light and dark cycle. All mice used in comparative studies were male, age-matched, and litter mates where possible.
We measured body weights, GTTs, ITTs, serum insulin, and fat cell diameter as previously described (Winer et al., 2009a). All GTTs were performed with a 1.5 g/kg glucose i.p. injection unless indicated otherwise.

gut epithelial barrier = conditions: models of IBD (Di Paolo et al., 1996; Liu et al., 2009); cited from earlier work
[1] = system: VAT T cells and M1 macrophages; assay: Flow cytometry of VAT immune cells, HFD or HFD 5-ASA; format: in vivo, mice; conditions: HFD vs HFD 5-ASA 1500 mg/kg/day, 16 weeks
Procedure: We isolated VAT-associated immune cells as previously described (Winer et al., 2009a).
We stained single cell suspensions for 30 min on ice with commercial antibodies. Flow cytometry antibodies including CD45.2 (104), CD3 (145-2C11), CD4 (GK1.5), CD8 (53-6.7), CD25 (PC61), γδTcR (GL3), Foxp3 (150D), IL-17 (TC11-18H10.1), IFNγ XMG1.2), α4β7 (DATK32), CCR9 (CW-1.2), CD11b (M1/70), F4/80 (BM8), CD11c (N418), CD206 (C068C2), Gr-1 (RB6-8C5), IL-7Rα (A7R34), B220 (RA3-6B2), Thy1.2 (30-H12), NKp46 (29A1.4), and Sca-1 (D7) were purchased from Biolegend. Intracellular staining was performed using a Foxp3 staining buffer kit (eBioscience). We acquired data on a Fortessa flow cytometer (BD Biosciences) and analyzed it with FlowJo software (Tree Star). We gated ILCs as described (Kirchberger et al., 2013).

gut bacteria = assay: Gut microbiome sequencing; format: in vivo; conditions: HFD 5-ASA-fed mice
Procedure: We amplified the V4 hypervariable region of the 16S rRNA gene using a universal forward sequencing primer and a uniquely barcoded reverse sequencing primer to allow for multiplexing (Caporaso et al., 2012). Primers contained an adapter sequence to bind the amplicons to the Illumina flow cell. PCR-based library construction was performed in triplicate 25 μl solutions containing 1×KAP[…] Robust HotStart ReadyMix, 600 nM each of primer, and 1 μl of DNA template. For every PCR reaction sterile dH2O was used as a negative control to ensure no contaminating DNA was present. PCR conditions were 95° C. for 3 min, followed by 18 cycles of 95° C. for 15 s, 58° C. for 15 s, 72° C. for 15 s and were completed at 72° C. for 5 min. All PCR reactions were run on a 1% agarose gel to visualize the amplification and approximate DNA quantity. Individual barcoded samples from the triplicates were pooled by approximately even concentrations to create the final library. The final library was purified using 0.8 volumes of Agencourt AMPure XP beads (Beckman Coulter, Indianapolis, Ind.) according to the manufacturer's protocol and quantified using the Qubit Fluorometer. The final library was prepared according to the MiSeq user guide, diluted to a concentration of 7 pM and combined with a 5% PhiX control. Sequencing was performed using the V2 (150 bp×2) chemistry and sequenced on the Illumina MiSeq (Illumina, San Diego, Calif.).

Question: With `Nc1ccc(O)c(C(=O)O)c1` [5-ASA, 5-aminosalicylic acid] as the compound, how does the IR (Rag1null mice) read?
Answer: The IR was “no effect”.

Question: What about the body weight (Rag1null mice) of the same compound?
Answer: The body weight was “no effect”.

Question: What about the glucose tolerance (Rag1null mice) of the same compound?
Answer: The glucose tolerance was “no effect”.

Question: And the “intactness of the gut epithelial barrier” value (gut epithelial barrier)?
Answer: Its value is “beneficial effects”.

Question: And the “Tregs in VAT” value [1]?
Answer: The value was “increasing”.

Question: And the “percentages of IFNγ-secreting CD8+ T cells in VAT” value [1]?
Answer: The value was “reducing”.

Question: And the “percentages of M1 inflammatory macrophages in VAT” value [1]?
Answer: The value was “reducing”.

Question: What about the “percentages of Th1 cells in VAT” value [1] of the same compound?
Answer: The value was “reducing”.

Question: And the Clostridiales (gut bacteria)?
Answer: Its Clostridiales is “increased”.

Question: What about the Firmicutes (gut bacteria) of the same compound?
Answer: The Firmicutes was “increased”.

Question: What about the “abundance of Ruminococcaceae” value (gut bacteria) of the same compound?
Answer: Its value is “increased”.

Question: What about the bacterial diversity (gut bacteria) of the same compound?
Answer: Its bacterial diversity is “increased”.
